Experimental data taken from US11524966B1 (Valo Early Discovery, Inc., priority 2017, dated 2022).

Biological target: T1, USP28 (USP28-5(1-1077)-TEV-6*His; LifeSensors) (Homo sapiens, UniProt Q96RU2)
T1 construct: construct USP28 (USP28-5(1-1077)-TEV-6*His; LifeSensors); TEV cleavage site (C); 6xHis (C); purchased LifeSensors
T1 sequence (Q96RU2 1-1077): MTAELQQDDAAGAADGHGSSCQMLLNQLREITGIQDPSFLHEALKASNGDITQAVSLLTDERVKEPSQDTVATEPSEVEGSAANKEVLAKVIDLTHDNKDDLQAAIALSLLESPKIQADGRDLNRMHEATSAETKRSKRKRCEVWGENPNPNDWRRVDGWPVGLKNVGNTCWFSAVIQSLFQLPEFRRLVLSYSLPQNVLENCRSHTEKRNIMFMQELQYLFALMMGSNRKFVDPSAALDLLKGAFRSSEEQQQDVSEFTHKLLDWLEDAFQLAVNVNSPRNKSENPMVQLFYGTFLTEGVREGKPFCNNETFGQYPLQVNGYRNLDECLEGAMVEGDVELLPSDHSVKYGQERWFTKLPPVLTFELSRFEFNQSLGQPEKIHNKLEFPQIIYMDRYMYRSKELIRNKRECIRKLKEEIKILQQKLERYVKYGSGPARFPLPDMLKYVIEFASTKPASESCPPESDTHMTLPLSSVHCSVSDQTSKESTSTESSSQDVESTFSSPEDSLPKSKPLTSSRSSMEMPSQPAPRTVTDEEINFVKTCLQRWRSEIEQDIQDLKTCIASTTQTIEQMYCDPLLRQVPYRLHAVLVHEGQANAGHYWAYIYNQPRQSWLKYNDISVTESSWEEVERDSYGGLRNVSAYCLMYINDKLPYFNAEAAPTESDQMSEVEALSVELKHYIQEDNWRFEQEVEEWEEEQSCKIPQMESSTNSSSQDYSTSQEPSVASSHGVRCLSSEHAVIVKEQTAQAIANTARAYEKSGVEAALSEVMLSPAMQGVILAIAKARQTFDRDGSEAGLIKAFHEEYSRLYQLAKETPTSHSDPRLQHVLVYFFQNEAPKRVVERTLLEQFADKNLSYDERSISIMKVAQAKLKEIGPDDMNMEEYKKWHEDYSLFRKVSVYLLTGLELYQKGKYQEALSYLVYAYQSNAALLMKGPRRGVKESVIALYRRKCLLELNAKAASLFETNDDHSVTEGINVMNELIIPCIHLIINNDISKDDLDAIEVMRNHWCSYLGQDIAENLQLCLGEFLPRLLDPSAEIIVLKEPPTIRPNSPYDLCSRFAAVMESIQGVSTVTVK
Assay: Ubiquitin-Rhodamine 110 Assay for USP28 Activity, Example A-1(b)
Assay type: biochemical
Conditions: Ubiquitin-Rhodamine 110 assay
Summary of the method: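 Single-point screening used 10 μM compound with 90 min room-temperature incubation; follow-up dose-responses (25 μM top, 3-fold) used 75 pM USP28 1-1077 construct, 30 min compound preincubation, 25 nM Ub-Rh110, 20 min reaction, citric acid quench. Rh110 fluorescence normalised to no-enzyme and DMSO controls; IC50 from 4-parameter logistic fit.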

Compound | USP28 A-1(b) IC50 range (Example A-1(b)) | USP28 A-1(b) IC50 range (format Example A-1(b))
Cc1cnc2c(N)c(C(=O)N[C@H]3CCc4cc(N5CCNC[C@@H](O)C5)ccc4C3)sc2n1 (single isomer, unassigned) [Example 7-4] | ++ (0.2-2 μM) | –
Cc1cnc2c(N)c(C(=O)N[C@@H]3CCc4cc(N5CCNC[C@@H](O)C5)ccc4C3)sc2n1 (single isomer, unassigned) [Example 7-5] | ++ (0.2-2 μM) | –
Cc1cnc2c(N)c(C(=O)N[C@H]3CCc4cc(N5CCNC[C@H](O)C5)ccc4C3)sc2n1 (single isomer, unassigned) [Example 7-6] | ++ (0.2-2 μM) | –
Cc1cnc2c(N)c(C(=O)N[C@@H]3CCc4cc(N5CCNC[C@H](O)C5)ccc4C3)sc2n1 (single isomer, unassigned) [Example 7-7] | + (>2 μM) | –
Cc1ccc2c(N)c(C(=O)N[C@H]3CCc4cc(N5CCN[C@H](CO)C5)ccc4C3)sc2n1 (single isomer, unassigned) [Example 7-8] | + (>2 μM) | –
Cc1ccc2c(N)c(C(=O)N[C@H]3CCc4cc(N5CCN[C@@H](CO)C5)ccc4C3)sc2n1 (single isomer, unassigned) [Example 7-9] | + (>2 μM) | –
Cc1ccc2c(N)c(C(=O)N[C@@H]3CCc4cc(N5CCN[C@H](CO)C5)ccc4C3)sc2n1 (single isomer, unassigned) [Example 7-10] | ++ (0.2-2 μM) | –
Cc1ccc2c(N)c(C(=O)N[C@@H]3CCc4cc(N5CCN[C@@H](CO)C5)ccc4C3)sc2n1 (single isomer, unassigned) [Example 7-11] | ++ (0.2-2 μM) | –
Cc1ccc2c(N)c(C(=O)N[C@H]3COc4cc(O[C@@H]5COC6(CNC6)C5)ccc4C3)sc2n1 (single isomer, unassigned) [Example 9-1] | +++ (0.05-0.2 μM) | –
Cc1ccc2c(N)c(C(=O)N[C@H]3COc4cc(O[C@H]5COC6(CNC6)C5)ccc4C3)sc2n1 (single isomer, unassigned) [Example 9-2] | +++ (0.05-0.2 μM) | –
Cc1nc2sc(C(=O)N[C@H]3CCc4cc(N5CC6CCC(C5)N6)ccc4C3)c(N)c2cc1F (single isomer, unassigned) [Example 11-3] | ++ (0.2-2 μM) | –
Cc1nc2sc(C(=O)N[C@@H]3CCc4cc(N5CC6CCC(C5)N6)ccc4C3)c(N)c2cc1F (single isomer, unassigned) [Example 11-4] | +++ (0.05-0.2 μM) | –
COc1ccc2c(N)c(C(=O)N[C@H]3CCc4cc(N5CC6CCC(C5)N6)ccc4C3)sc2n1 (single isomer, unassigned) [Example 11-5] | ++ (0.2-2 μM) | –
COc1ccc2c(N)c(C(=O)N[C@@H]3CCc4cc(N5CC6CCC(C5)N6)ccc4C3)sc2n1 (single isomer, unassigned) [Example 11-6] | + (>2 μM) | –
Cc1cnc2c(N)c(C(=O)N[C@H]3CCc4cc(N5CC6CCC(C5)N6)ccc4C3)sc2n1 (single isomer, unassigned) [Example 11-7] | ++ (0.2-2 μM) | –
Cc1cnc2c(N)c(C(=O)N[C@@H]3CCc4cc(N5CC6CCC(C5)N6)ccc4C3)sc2n1 (single isomer, unassigned) [Example 11-8] | + (>2 μM) | –
CCn1ccc2cc(C(=O)N[C@H]3CCc4cc(N5CC6CCC(C5)N6)ccc4C3)cnc21 (single isomer, unassigned) [Example 11-9] | + (>2 μM) | –
CCn1ccc2cc(C(=O)N[C@@H]3CCc4cc(N5CC6CCC(C5)N6)ccc4C3)cnc21 (single isomer, unassigned) [Example 11-10] | ++ (0.2-2 μM) | –
Cc1ccc2c(N)c(C(=O)N[C@H]3CCc4cc(N5CCNCC5)cc(F)c4C3)sc2n1 (single isomer, unassigned) [Example 11-11] | + (>2 μM) | –

Compound | USP28 A-1(b) IC50 range (Example A-1(b)) | USP28 A-1(b) IC50 range (format Example A-1(b))
Cc1ccc2c(N)c(C(=O)N[C@@H]3CCc4cc(N5CCNCC5)cc(F)c4C3)sc2n1 (single isomer, unassigned) [Example 11-12] | ++ (0.2-2 μM) | –
Cc1cnc2c(N)c(C(=O)N[C@H]3CCc4cc(N5CC6CCC(C5)N6)cc(F)c4C3)sc2n1 (single isomer, unassigned) [Example 11-13] | + (>2 μM) | –
Cc1cnc2c(N)c(C(=O)N[C@@H]3CCc4cc(N5CC6CCC(C5)N6)cc(F)c4C3)sc2n1 (single isomer, unassigned) [Example 11-14] | +++ (0.05-0.2 μM) | –
Cc1ccc2c(N)c(C(=O)N[C@@H]3COc4cc(N5CCNCC5)ccc4[C@@H]3C)sc2n1 (single isomer, unassigned) [Example 11-18] | + (>2 μM) | –
CCn1ccc2cc(C(=O)N[C@@H]3CCc4cc(N5CC6CCC(C5)N6)ccc4C3)nnc21 (single isomer, unassigned) [Example 11-23] | + (>2 μM) | –
CCn1ccc2cc(C(=O)N[C@H]3CCc4cc(N5CC6CCC(C5)N6)ccc4C3)nnc21 (single isomer, unassigned) [Example 11-24] | + (>2 μM) | –
Cc1ccc2c(N)c(C(=O)N[C@H]3CCc4cc(N5C6CNCC5C6)ccc4C3)sc2n1 (single isomer, unassigned) [Example 11-35] | – | ++ (0.2-2 μM)
Cc1ccc2c(N)c(C(=O)N[C@@H]3CCc4cc(N5C6CNCC5C6)ccc4C3)sc2n1 (single isomer, unassigned) [Example 11-36] | – | ++ (0.2-2 μM)
Cc1nc2sc(C(=O)N[C@H]3CCc4cc(N5CC6CCC(C5)N6)ccc4C3)c(N)c2s1 (single isomer, unassigned) [Example 12-1] | – | + (>2 μM)
Cc1ccc2c(N)c(C(=O)N[C@H]3COc4c(F)c(N5CC6CCC(C5)N6)cc(F)c4C3)sc2n1 (single isomer, unassigned) [Example 13-1] | – | ++++ (0.001-0.05 μM)
Cc1ccc2c(N)c(C(=O)N[C@@H]3COc4c(F)c(N5CC6CCC(C5)N6)cc(F)c4C3)sc2n1 (single isomer, unassigned) [Example 13-2] | – | + (>2 μM)
Cc1ccc2c(N)c(C(=O)N[C@@H]3COc4cc(N5CCNCC5)c(Cl)cc4C3)sc2n1 (single isomer, unassigned) [Example 13-6] | – | +++ (0.05-0.2 μM)
Cc1ccc2c(N)c(C(=O)N[C@@H]3CCc4cc(N5CCNCC5)cnc4C3)sc2n1 (single isomer, unassigned) [Example 15-1] | – | + (>2 μM)
Cc1ccc2c(N)c(C(=O)N[C@H]3CCc4cc(N5CCNCC5)cnc4C3)sc2n1 (single isomer, unassigned) [Example 15-2] | – | + (>2 μM)
Cc1ccc2c(N)c(C(=O)N[C@@H]3CCc4c(ccc(N5CC6CCC(C5)N6)c4F)C3)sc2n1 (single isomer, unassigned) [Example 21-1] | – | ++ (0.2-2 μM)
Cc1ccc2c(N)c(C(=O)N[C@H]3CCc4c(ccc(N5CC6CCC(C5)N6)c4F)C3)sc2n1 (single isomer, unassigned) [Example 21-2] | – | ++ (0.2-2 μM)
Cc1ccc2c(N)c(C(=O)N[C@@H]3CCc4cc(N5CC6CCC(C5)N6)c(F)cc4C3)sc2n1 (single isomer, unassigned) [Example 21-3] | – | ++++ (0.001-0.05 μM)
Cc1ccc2c(N)c(C(=O)N[C@H]3CCc4cc(N5CC6CCC(C5)N6)c(F)cc4C3)sc2n1 (single isomer, unassigned) [Example 21-4] | – | ++ (0.2-2 μM)
